# Experimental data as given in patent US11337976B2 (Plexxikon Inc., priority 2011, dated 2022).
# Tested on: A375 melanoma cells (B-Raf V600E mutation)
# Experiment: A375 (A375_P-ERK) cell activity / cell growth inhibition assay
# Format: cell-based, human
# Settings: Homo sapiens, A-375; A375 cells (text: A375_P-ERK)
# Method: Compounds are assessed in a variety of cell based assays. For example human cell lines with B-RafV600E mutation (A375 melanoma, SKMEL3 melanoma, and COLO205 colon adenocarcinoma), as well as tumorigenic cell lines with wild-type B-RAF (SW620 colon adenocarcinoma) or with Ras mutations (SKMEL2 melanoma and IPC298 melanoma).
# On day 1, cells are counted, then centrifuged in a conical tube for 5 minutes at 1000 rpm.
# On day 2, compound at a maximum concentration of 5 mM is serially diluted 1:3 (e.g. 10 μL with 30 μL dimethyl sulfoxide) for a total of 8 point titration with DMSO as a control. A 1 μL aliquot of each dilution point and control is added to 249 μL growth media and 50 μL is added to a well containing cells, providing 10 μM compound at the maximum concentration point. The cells are incubated for 3 days at 37° C. in 5% CO2.
# ATPlite is added 25 μL to each well, shake for 2 minutes, and the cells are incubated at room temperature for 10 minutes, then luminescence is read on Safire reader. The measured luminescence correlates directly with cell number, such that the reading as a function of compound concentration is used to determine the IC50 value.
row,Structure (SMILES),IC50
1,"CCN(C)S(=O)(=O)Nc1cccc(C(=O)c2c[nH]c3ncc(-c4ccc(C(C)(C)O)cc4)cc23)c1F [P-0104, 3-[3-[[ethyl(methyl)sulfamoyl]amino]-2-fluoro-benzoyl]-5-[4-(1-hydroxy-1-methyl-ethyl)phenyl]-1H-pyrrolo[2,3-b]pyridine]",< 1 µM
2,"CN(C)S(=O)(=O)Nc1cccc(C(=O)c2c[nH]c3ncc(-c4cnc(N5CCCC5)nc4)cc23)c1F [P-0107, 3-[3-(dimethylsulfamoylamino)-2-fluoro-benzoyl]-5-(2-pyrrolidin-1-ylpyrimidin-5-yl)-1H-pyrrolo[2,3-b]pyridine]",< 1 µM
3,"O=C(c1cccc(NS(=O)(=O)N2CCCC2)c1F)c1c[nH]c2ncc(-c3cnc(N4CCCC4)nc3)cc12 [P-0109, N-[2-fluoro-3-[5-(2-pyrrolidin-1-ylpyrimidin-5-yl)-1H-pyrrolo[2,3-b]pyridine-3-carbonyl]phenyl]pyrrolidine-1-sulfonamide]",< 1 µM
4,"CN(C)S(=O)(=O)Nc1cccc(C(=O)c2c[nH]c3ncc(I)cc23)c1F [P-0110, 3-[3-(dimethylsulfamoylamino)-2-fluoro-benzoyl]-5-iodo-1H-pyrrolo[2,3-b]pyridine]",< 1 µM
5,"CN(C)S(=O)(=O)Nc1cccc(C(=O)c2c[nH]c3ncc(-c4ccc(C5CC5)nc4)cc23)c1F [P-0113, 5-(6-cyclopropyl-3-pyridyl)-3-[3-(dimethylsulfamoylamino)-2-fluoro-benzoyl]-1H-pyrrolo[2,3-b]pyridine]",< 1 µM
6,"CCCN(C)S(=O)(=O)Nc1cccc(C(=O)c2c[nH]c3ncc(-c4ccc(C5CC5)nc4)cc23)c1F [P-0114, 5-(6-cyclopropyl-3-pyridyl)-3-[2-fluoro-3-[[methyl(propyl)sulfamoyl]amino]benzoyl]-1H-pyrrolo[2,3-b]pyridine]",< 1 µM
7,"CCCN(C)S(=O)(=O)Nc1ccc(F)c(C(=O)c2c[nH]c3ncc(-c4cnc(OC)nc4)cc23)c1F [P-0116, 3-[2,6-difluoro-3-[[methyl(propyl)sulfamoyl]amino]benzoyl]-5-(2-methoxypyrimidin-5-yl)-1H-pyrrolo[2,3-b]pyridine]",< 1 µM
8,"CCC(C)S(=O)(=O)Nc1cccc(C(=O)c2c[nH]c3ncc(-c4cnc(OC)nc4)cc23)c1F (stereo not drawn) [P-0224, N-[2-fluoro-3-[5-(2-methoxypyrimidin-5-yl)-1H-pyrrolo[2,3-b]pyridine-3-carbonyl]phenyl]butane-2-sulfonamide]",< 1 µM
9,"CCC(C)S(=O)(=O)Nc1cccc(C(=O)c2c[nH]c3ncc(-c4ccc(C5(C#N)CC5)cc4)cc23)c1F (stereo not drawn) [P-0227, N-[3-[5-[4-(1-cyanocyclopropyl)phenyl]-1H-pyrrolo[2,3-b]pyridine-3-carbonyl]-2-fluoro-phenyl]butane-2-sulfonamide]",< 1 µM
10,"CCC(C)S(=O)(=O)Nc1cccc(C(=O)c2c[nH]c3ncc(-c4cnc(C5CC5)nc4)cc23)c1F (stereo not drawn) [P-0228, N-[3-[5-(2-cyclopropylpyrimidin-5-yl)-1H-pyrrolo[2,3-b]pyridine-3-carbonyl]-2-fluoro-phenyl]butane-2-sulfonamide]",< 1 µM
11,"CCC(C)S(=O)(=O)Nc1cccc(C(=O)c2c[nH]c3ncc(-c4cnc(C(C)C)nc4)cc23)c1F (stereo not drawn) [P-0229, N-[2-fluoro-3-[5-(2-isopropylpyrimidin-5-yl)-1H-pyrrolo[2,3-b]pyridine-3-carbonyl]phenyl]butane-2-sulfonamide]",< 1 µM
12,"CCC(C)S(=O)(=O)Nc1cccc(C(=O)c2c[nH]c3ncc(-c4ccc(N(C)C)nc4)cc23)c1F (stereo not drawn) [P-0230, N-[3-[5-[6-(dimethylamino)-3-pyridyl]-1H-pyrrolo[2,3-b]pyridine-3-carbonyl]-2-fluoro-phenyl]butane-2-sulfonamide]",< 1 µM
13,"CCC(C)S(=O)(=O)Nc1cccc(C(=O)c2c[nH]c3ncc(-c4cnc(C)nc4)cc23)c1F (stereo not drawn) [P-0231, N-[2-fluoro-3-[5-(2-methylpyrimidin-5-yl)-1H-pyrrolo[2,3-b]pyridine-3-carbonyl]phenyl]butane-2-sulfonamide]",< 1 µM
14,"O=C(c1cccc(NS(=O)(=O)N2CCCC2)c1F)c1c[nH]c2ncc(-c3cnc(N4CCOCC4)nc3)cc12 [P-0235, N-[2-fluoro-3-[5-(2-morpholinopyrimidin-5-yl)-1H-pyrrolo[2,3-b]pyridine-3-carbonyl]phenyl]pyrrolidine-1-sulfonamide]",< 1 µM
15,"CN(C)S(=O)(=O)Nc1ccc(F)c(C(=O)c2c[nH]c3ncc(-c4ccc(C5(C#N)CC5)cc4)cc23)c1F [P-0237, 5-[4-(1-cyanocyclopropyl)phenyl]-3-[3-(dimethylsulfamoylamino)-2,6-difluoro-benzoyl]-1H-pyrrolo[2,3-b]pyridine]",< 1 µM
16,"CCN(C)S(=O)(=O)Nc1ccc(F)c(C(=O)c2c[nH]c3ncc(-c4ccc(C5(C#N)CC5)cc4)cc23)c1F [P-0239, 5-[4-(1-cyanocyclopropyl)phenyl]-3-[3-[[ethyl(methyl)sulfamoyl]amino]-2,6-difluoro-benzoyl]-1H-pyrrolo[2,3-b]pyridine]",< 1 µM
17,"O=C(c1c(F)ccc(NS(=O)(=O)N2CCCC2)c1F)c1c[nH]c2ncc(-c3cnc(C4CC4)nc3)cc12 [P-0241, N-[3-[5-(2-cyclopropylpyrimidin-5-yl)-1H-pyrrolo[2,3-b]pyridine-3-carbonyl]-2,4-difluoro-phenyl]pyrrolidine-1-sulfonamide]",< 1 µM
18,"O=C(c1cccc(NS(=O)(=O)N2CCCC2)c1F)c1c[nH]c2ncc(-c3ccc(C4(C(=O)O)CC4)cc3)cc12 [P-0243, 1-[4-[3-[2-fluoro-3-(pyrrolidin-1-ylsulfonylamino)benzoyl]-1H-pyrrolo[2,3-b]pyridin-5-yl]phenyl]cyclopropanecarboxylic acid]",> 1 µM

# Next, values leading:
row,IC50,Structure (SMILES)
1,< 1 µM,"CCN(C)S(=O)(=O)Nc1cccc(C(=O)c2c[nH]c3ncc(-c4ccc(C#N)nc4)cc23)c1F [P-0102, 5-(6-cyano-3-pyridyl)-3-[3-[[ethyl(methyl)sulfamoyl]amino]-2-fluoro-benzoyl]-1H-pyrrolo[2,3-b]pyridine]"
2,< 1 µM,"CN(C)c1ncc(-c2cnc3[nH]cc(C(=O)c4cccc(NS(=O)(=O)N(C)C)c4F)c3c2)cn1 [P-0106, 5-[2-(dimethylamino)pyrimidin-5-yl]-3-[3-(dimethylsulfamoylamino)-2-fluoro-benzoyl]-1H-pyrrolo[2,3-b]pyridine]"
3,< 1 µM,"CCCN(C)S(=O)(=O)Nc1cccc(C(=O)c2c[nH]c3ncc(-c4cnc(C)nc4)cc23)c1F [P-0111, 3-[2-fluoro-3-[[methyl(propyl)sulfamoyl]amino]benzoyl]-5-(2-methylpyrimidin-5-yl)-1H-pyrrolo[2,3-b]pyridine]"
4,< 1 µM,"Cc1ncc(-c2cnc3[nH]cc(C(=O)c4cccc(NS(=O)(=O)N(C)CC5CC5)c4F)c3c2)cn1 [P-0112, 3-[3-[[cyclopropylmethyl(methyl)sulfamoyl]amino]-2-fluoro-benzoyl]-5-(2-methylpyrimidin-5-yl)-1H-pyrrolo[2,3-b]pyridine]"
5,< 1 µM,"CN(CC1CC1)S(=O)(=O)Nc1cccc(C(=O)c2c[nH]c3ncc(-c4ccc(C5CC5)nc4)cc23)c1F [P-0115, 3-[3-[[cyclopropylmethyl(methyl)sulfamoyl]amino]-2-fluoro-benzoyl]-5-(6-cyclopropyl-3-pyridyl)-1H-pyrrolo[2,3-b]pyridine]"
6,> 1 µM,"CCCNS(=O)(=O)Nc1cccc(C(=O)c2c[nH]c3ncc(I)cc23)c1F [P-0117, [2-fluoro-3-(propylsulfamoylamino)phenyl]-(5-iodo-1H-pyrrolo[2,3-b]pyridin-3-yl)methanone]"
7,< 1 µM,"CCC(C)S(=O)(=O)Nc1cccc(C(=O)c2c[nH]c3ncc(-c4cnc(N5CCCC5)nc4)cc23)c1F (stereo not drawn) [P-0225, N-[2-fluoro-3-[5-(2-pyrrolidin-1-ylpyrimidin-5-yl)-1H-pyrrolo[2,3-b]pyridine-3-carbonyl]phenyl]butane-2-sulfonamide]"
8,< 1 µM,"CCC(C)S(=O)(=O)Nc1cccc(C(=O)c2c[nH]c3ncc(-c4cnc(NC5CC5)nc4)cc23)c1F (stereo not drawn) [P-0226, N-[3-[5-[2-(cyclopropylamino)pyrimidin-5-yl]-1H-pyrrolo[2,3-b]pyridine-3-carbonyl]-2-fluoro-phenyl]butane-2-sulfonamide]"
9,< 1 µM,"CCC(C)S(=O)(=O)Nc1cccc(C(=O)c2c[nH]c3ncc(-c4cnc(N5CCOCC5)nc4)cc23)c1F (stereo not drawn) [P-0236, N-[2-fluoro-3-[5-(2-morpholinopyrimidin-5-yl)-1H-pyrrolo[2,3-b]pyridine-3-carbonyl]phenyl]butane-2-sulfonamide]"
10,< 1 µM,"CN(C)S(=O)(=O)Nc1ccc(F)c(C(=O)c2c[nH]c3ncc(-c4cnc(C5CC5)nc4)cc23)c1F [P-0238, 5-(2-cyclopropylpyrimidin-5-yl)-3-[3-(dimethylsulfamoylamino)-2,6-difluoro-benzoyl]-1H-pyrrolo[2,3-b]pyridine]"
11,< 1 µM,"CCN(C)S(=O)(=O)Nc1ccc(F)c(C(=O)c2c[nH]c3ncc(-c4cnc(C5CC5)nc4)cc23)c1F [P-0240, 5-(2-cyclopropylpyrimidin-5-yl)-3-[3-[[ethyl(methyl)sulfamoyl]amino]-2,6-difluoro-benzoyl]-1H-pyrrolo[2,3-b]pyridine]"
12,> 1 µM,"CCCNS(=O)(=O)Nc1cccc(C(=O)c2c[nH]c3ncc(-c4cnn(C)c4)cc23)c1F [P-0242, [2-fluoro-3-(propylsulfamoylamino)phenyl]-[5-(1-methylpyrazol-4-yl)-1H-pyrrolo[2,3-b]pyridin-3-yl]methanone]"
